In patent US20200181117A1, “SUBSTITUTED 3-HETEROARYLOXY-1H-PYRAZOLES AND SALTS THEREOF AND THEIR USE AS HERBICIDAL ACTIVE SUBSTANCES” (BAYER CROPSCIENCE AKTIENGESELLSCHAFT, priority 2017, published 2020):

Key:
Format in all cases: in vivo
[1] = system: Pharbitis purpurea; assay: Post-emergence herbicidal action; details: 1280 g/ha, rated visually after about 3 weeks vs untreated controls
Summary of the method: (§1)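 Visual % activity versus untreated controls (100% = plants died, 0% = like controls), scored about 3 weeks after a foliar spray. Greenhouse plants in sandy loam were treated at one-leaf stage with 1280 g/ha in aqueous spray containing 0.5% additive, 600 l/ha.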

[2] = system: Viola tricolor; assay: Post-emergence herbicidal action; details: 1280 g/ha, rated visually after about 3 weeks vs untreated controls
Summary of the method: as §1

[3] = system: Amaranthus retroflexus; assay: Post-emergence herbicidal action; details: 1280 g/ha, rated visually after about 3 weeks vs untreated controls
Summary of the method: as §1

[4] = system: Ipomoea purpurea; assay: Post-emergence herbicidal action; details: 1280 g/ha, rated visually after about 3 weeks vs untreated controls
Summary of the method: as §1

[5] = system: Setaria viridis; assay: Pre-emergence herbicidal action; details: 1280 g/ha, scored visually after about 3 weeks vs untreated controls
Summary of the method: (§2)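 Greenhouse pots with seeds under a soil layer were treated on the soil surface with compound at 1280 g/ha, formulated as WP or EC plus 0.5% additive. About 3 weeks later, visual % effect versus untreated controls was recorded.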

[6] = system: Matricaria inodora; assay: Pre-emergence herbicidal action; details: 1280 g/ha, scored visually after about 3 weeks vs untreated controls
Summary of the method: as §2

[7] = system: Stellaria media; assay: Pre-emergence herbicidal action; details: 1280 g/ha, scored visually after about 3 weeks vs untreated controls
Summary of the method: as §2

[8] = system: Polygonum convolvulus; assay: Pre-emergence herbicidal action; details: 1280 g/ha, scored visually after about 3 weeks vs untreated controls
Summary of the method: as §2

[9] = system: Viola tricolor; assay: Pre-emergence herbicidal action; details: 1280 g/ha, scored visually after about 3 weeks vs untreated controls
Summary of the method: as §2

[10] = system: Amaranthus retroflexus; assay: Pre-emergence herbicidal action; details: 1280 g/ha, scored visually after about 3 weeks vs untreated controls
Summary of the method: as §2

[11] = system: Abutilon theophrasti; assay: Post-emergence herbicidal action; details: 1280 g/ha, rated visually after about 3 weeks vs untreated controls
Summary of the method: as §1

[12] = system: Setaria viridis; assay: Post-emergence herbicidal action; details: 1280 g/ha, rated visually after about 3 weeks vs untreated controls
Summary of the method: as §1

[13] = system: Lolium rigidum; assay: Post-emergence herbicidal action; details: 1280 g/ha, rated visually after about 3 weeks vs untreated controls
Summary of the method: as §1

[14] = system: Alopecurus myosuroides; assay: Post-emergence herbicidal action; details: 1280 g/ha, rated visually after about 3 weeks vs untreated controls
Summary of the method: as §1

[15] = system: Polygonum convolvulus; assay: Post-emergence herbicidal action; details: 1280 g/ha, rated visually after about 3 weeks vs untreated controls
Summary of the method: as §1

[16] = system: Echinochloa crus-galli; assay: Post-emergence herbicidal action; details: 1280 g/ha, rated visually after about 3 weeks vs untreated controls
Summary of the method: as §1

[17] = system: Abutilon theophrasti; assay: Pre-emergence herbicidal action; details: 1280 g/ha, scored visually after about 3 weeks vs untreated controls
Summary of the method: as §2

[18] = system: Hordeum murinum; assay: Pre-emergence herbicidal action; details: 1280 g/ha, scored visually after about 3 weeks vs untreated controls
Summary of the method: as §2

[19] = system: Lolium rigidum; assay: Pre-emergence herbicidal action; details: 1280 g/ha, scored visually after about 3 weeks vs untreated controls
Summary of the method: as §2

[20] = system: Alopecurus myosuroides; assay: Pre-emergence herbicidal action; details: 1280 g/ha, scored visually after about 3 weeks vs untreated controls
Summary of the method: as §2

[21] = system: Veronica persica; assay: Pre-emergence herbicidal action; details: 1280 g/ha, scored visually after about 3 weeks vs untreated controls
Summary of the method: as §2

[22] = system: Echinochloa crus-galli; assay: Pre-emergence herbicidal action; details: 1280 g/ha, scored visually after about 3 weeks vs untreated controls
Summary of the method: as §2

[23] = system: Avena fatua; assay: Pre-emergence herbicidal action; details: 1280 g/ha, scored visually after about 3 weeks vs untreated controls
Summary of the method: as §2

[24] = system: Stellaria media; assay: Post-emergence herbicidal action; details: 1280 g/ha, rated visually after about 3 weeks vs untreated controls
Summary of the method: as §1

[25] = system: Pharbitis purpurea; assay: Pre-emergence herbicidal action; details: 1280 g/ha, scored visually after about 3 weeks vs untreated controls
Summary of the method: as §2

[26] = system: Avena fatua; assay: Post-emergence herbicidal action; details: 1280 g/ha, rated visually after about 3 weeks vs untreated controls
Summary of the method: as §1

Row | SMILES | herbicidal activity on Pharbitis purpurea [1] [%] | herbicidal activity on Viola tricolor [2] [%] | herbicidal activity on Amaranthus retroflexus [3] [%] | herbicidal activity on Ipomoea purpurea [4] [%] | herbicidal activity on Setaria viridis [5] [%] | herbicidal activity on Matricaria inodora [6] [%] | herbicidal activity on Stellaria media [7] [%] | herbicidal activity on Polygonum convolvulus [8] [%] | herbicidal activity on Viola tricolor [9] [%] | herbicidal activity on Amaranthus retroflexus [10] [%] | herbicidal activity on Abutilon theophrasti [11] [%] | herbicidal activity on Setaria viridis [12] [%] | herbicidal activity on Echinochloa crus-galli [16] [%] | herbicidal activity on Abutilon theophrasti [17] [%] | herbicidal activity on Hordeum murinum [18] [%] | herbicidal activity on Lolium rigidum [19] [%] | herbicidal activity on Alopecurus myosuroides [20] [%] | herbicidal activity on Veronica persica [21] [%] | herbicidal activity on Echinochloa crus-galli [22] [%] | herbicidal activity on Avena fatua [23] [%] | further results
1 | CCc1c(Sc2ccc(F)cc2)c(Oc2ncc(OC)cn2)nn1C [Example I-186] | 80 | 100 | 100 | 80 | 100 | 90 | 100 | 80 | 100 | 100 | – | – | – | – | – | – | – | – | – | – | –
2 | COc1cnc(Oc2nn(C)c(C)c2Sc2ccc(F)c(F)c2)nc1 [Example I-157] | – | 100 | 100 | – | 100 | 100 | 100 | 100 | 100 | 100 | 90 | 80 | 100 | 100 | 100 | 100 | 100 | 100 | 100 | 100 | herbicidal activity on Lolium rigidum [13]: 80%; herbicidal activity on Alopecurus myosuroides [14]: 100%; herbicidal activity on Polygonum convolvulus [15]: 80%
3 | CCc1c(Sc2ccc(F)cc2F)c(Oc2ncc(OC)cn2)nn1C [Example I-207] | 90 | 80 | 90 | 90 | 100 | – | 100 | 80 | 100 | 100 | – | – | – | 80 | – | – | – | 100 | – | – | –
4 | Cc1c(Sc2ccc(F)cc2Cl)c(Oc2ncccn2)nn1C [Example I-135] | 80 | 100 | 100 | 80 | 100 | 90 | 100 | 90 | 100 | 100 | – | – | – | 100 | 80 | 90 | 100 | 100 | 100 | 80 | herbicidal activity on Stellaria media [24]: 90%
5 | CCc1c(Sc2ccc(F)cc2F)c(Oc2ncc(F)cn2)nn1C [Example I-094] | 100 | 100 | 100 | – | 100 | 100 | 100 | 90 | 100 | 100 | 90 | – | 80 | 100 | 100 | 80 | 100 | 100 | 100 | – | herbicidal activity on Stellaria media [24]: 100%; herbicidal activity on Polygonum convolvulus [15]: 90%; herbicidal activity on Pharbitis purpurea [25]: 100%
6 | Cn1cc(Sc2ccc(F)cc2)c(Oc2ncc(Cl)cn2)n1 [Example I-095] | 80 | 100 | 100 | 80 | 100 | 100 | 100 | 90 | 100 | 100 | – | – | 80 | 100 | 100 | 100 | 100 | 100 | 100 | 100 | –
7 | Fc1ccc(Sc2c(Oc3ncccn3)nn3c2CCC3)cc1 [Example I-097] | 90 | 80 | 80 | – | 100 | 100 | 100 | 100 | 100 | 90 | 90 | 90 | 100 | 100 | 90 | – | 100 | 90 | 100 | 80 | herbicidal activity on Alopecurus myosuroides [14]: 90%; herbicidal activity on Pharbitis purpurea [25]: 90%
8 | COc1cnc(Oc2nn(C)c(C)c2Sc2ccc(Cl)cc2)nc1 [Example I-066] | 80 | 100 | 80 | 80 | 100 | 100 | 100 | 90 | 100 | 100 | – | – | 80 | 90 | 100 | – | 80 | 100 | 100 | – | –
9 | COc1cnc(Oc2nn(C)c(C)c2Sc2ccc(F)cc2)nc1 [Example I-089] | – | – | – | – | 100 | 100 | 100 | 90 | 100 | 100 | – | 80 | – | 100 | 90 | 90 | 90 | 100 | 100 | 80 | herbicidal activity on Alopecurus myosuroides [14]: 90%; herbicidal activity on Polygonum convolvulus [15]: 90%; herbicidal activity on Avena fatua [26]: 80%
